Structures can show the parent of a compound that is named as a salt.

T1 sequence (P61169 whole entry): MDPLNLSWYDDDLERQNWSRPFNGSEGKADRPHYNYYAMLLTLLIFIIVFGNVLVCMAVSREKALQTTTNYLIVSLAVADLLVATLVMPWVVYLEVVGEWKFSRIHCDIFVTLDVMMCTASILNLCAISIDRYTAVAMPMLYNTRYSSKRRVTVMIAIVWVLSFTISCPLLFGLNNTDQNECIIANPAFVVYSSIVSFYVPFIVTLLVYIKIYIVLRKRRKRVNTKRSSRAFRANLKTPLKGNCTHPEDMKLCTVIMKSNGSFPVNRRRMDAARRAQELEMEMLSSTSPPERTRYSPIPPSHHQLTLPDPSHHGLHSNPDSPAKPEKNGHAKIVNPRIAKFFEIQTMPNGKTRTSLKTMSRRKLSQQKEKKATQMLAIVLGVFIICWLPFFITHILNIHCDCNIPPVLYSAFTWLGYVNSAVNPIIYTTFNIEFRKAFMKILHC

One data set deals with dopamine receptors. Briefly: Reduction of mouse locomotor activity (functional antagonism of dopamine receptors in vivo). Conditions: sc; male CF-1 mice; horizontal activity counts 10 to 20 minutes after dosing. On the procedure: The antipsychotic activity of the compounds of the invention was established by a determination of functional antagonism of dopamine receptors in vivo, specifically the compounds' ability to reduce mouse locomotor activity according to the method of Martin and Bendensky, J. Pharmacol. Exp. Therap. 229:706-711, 1984, in which mice (male, CF-1, Charles River, 20-30 g) were injected with vehicle or various doses of each drug and locomotor activity was measured for 30 minutes using automated infrared activity monitors (Omnitech—8×8 inch open field) located in a darkened room. ED50's were calculated from the horizontal activity counts collected from 10 to 20 minutes after dosing using a nonlinear regression analysis with inverse prediction.
`C1=C(c2c[nH]c3ccccc23)CCN(CC2COc3ccc4nocc4c3O2)C1` (stereo not drawn) [Example 3, 8-[4-(1H-Indol-3-yl)-3,6-dihydro-2H-pyridin-1-ylmethyl]-7,8-dihydro-2,6,9-trioxa-3-aza-cyclopenta[a]naphthalene]: the “ED50 for reduction of mouse locomotor activity” value is no less than 50 mg/kg.

The next data set has as its target T1, dopamine D2 receptor (Rattus norvegicus, UniProt P61169).
T1 construct: from tissue; host or cells: rat striatal brain tissue homogenate
Briefly: Dopamine D2 receptor affinity, 3H-quinpirole binding in homogenized rat striatal brain tissue.
Settings: not given
Here is the method:
Affinity for the dopamine D2 receptor was established by a modification of the standard experimental test procedure of Seemen and Schaus, European Journal of Pharmacology 203:105-109, 1991, wherein homogenized rat striatal brain tissue is incubated with ^3H-quinpirole and various concentrations of test compound, filtered and washed and counted in a Betaplate scintillation counter.
What is called IC50 is the concentration needed to halve the response being measured. Low readings indicate greater potency in that assay, high ones weaker potency in that assay. In turn, `c1ccc(CNCC2COc3ccc4nocc4c3O2)cc1` (stereo not drawn) [Example 1, Benzyl-(-7,8-dihydro-2,6,9-trioxa-3-aza-cyclopenta[a]naphthalen-8-ylmethyl)-amine] registered an IC50 of 8.05 nM.
Still for that read-out and setting: then `c1ccc2c(c1)CCN(CC1COc3ccc4nocc4c3O1)C2` (stereo not drawn) [Example 2, 8-(3,4-Dihydro-1H-isoquinolin-2-ylmethyl)-7,8-dihydro-2,6,9-trioxa-3-aza-cyclopenta[a]naphthalene], with 58.8 nM.
`C1=C(c2c[nH]c3ccccc23)CCN(CC2COc3ccc4nocc4c3O2)C1` (stereo not drawn) [Example 3, 8-[4-(1H-Indol-3-yl)-3,6-dihydro-2H-pyridin-1-ylmethyl]-7,8-dihydro-2,6,9-trioxa-3-aza-cyclopenta[a]naphthalene] had an IC50 of 350 nM.
On the same count and under the same terms, then `Fc1ccc2[nH]cc(CC3CCN(CC4COc5ccc6nocc6c5O4)CC3)c2c1` (stereo not drawn) [Example 4, 8-[4-(5-Fluoro-1H-indol-3-ylmethyl)-piperidin-1-ylmethyl]-7,8-dihydro-2,6,9-trioxa-3-aza-cyclopenta[a]naphthalene], with 36.7 nM; and `O=C(c1ccc(F)cc1)C1CCN(CC2COc3ccc4nocc4c3O2)CC1` (stereo not drawn) [Example 5, [1-(7,8-Dihydro-2,6,9-trioxa-3-aza-cyclopenta[a]naphthalen-8-ylmethyl)-piperidin-4-yl]-(4-fluoro-phenyl)-methanone], with 32.4 nM; and `c1ccc2c(CCCNCC3COc4ccc5nocc5c4O3)c[nH]c2c1` (stereo not drawn) [Example 6, 2,3-Dihydro-N-[3-(1H-indol-3-yl)propyl]-1,4-dioxino[2,3-e][2,1]benzisoxazole-2-methanamine], with 4.8 nM.
`c1ccc(CCCCNCC2COc3ccc4nocc4c3O2)cc1` (stereo not drawn) [Example 7, (7,8-Dihydro-2,6,9-trioxa-3-aza-cyclopenta[a]naphthalen-8-ylmethyl)-(4-phenyl-butyl)-amine] displayed an IC50 of 4.1 nM.

Tested on in the next data set: not given
Assay: not given
Settings: not given
For orientation: melting point means the temperature, or range, at which the solid turns liquid. Consider `c1ccc(CCCCNCC2COc3ccc4nocc4c3O2)cc1` (stereo not drawn) (as salt: fumarate) (hydrate or solvate) [Example 7, (7,8-Dihydro-2,6,9-trioxa-3-aza-cyclopenta[a]naphthalen-8-ylmethyl)-(4-phenyl-butyl)-amine], for which the melting point was in the range of 172 to 174 °C.
On the same count and under the same terms, then `c1ccc(CNCC2COc3ccc4nocc4c3O2)cc1` (stereo not drawn) (as salt: fumarate) [Example 1, Benzyl-(-7,8-dihydro-2,6,9-trioxa-3-aza-cyclopenta[a]naphthalen-8-ylmethyl)-amine], with 180 °C; and `c1ccc2c(c1)CCN(CC1COc3ccc4nocc4c3O1)C2` (stereo not drawn) (as salt: fumarate) [Example 2, 8-(3,4-Dihydro-1H-isoquinolin-2-ylmethyl)-7,8-dihydro-2,6,9-trioxa-3-aza-cyclopenta[a]naphthalene], with 175 to 176 °C; and `O=C(c1ccc(F)cc1)C1CCN(CC2COc3ccc4nocc4c3O2)CC1` (stereo not drawn) (as salt: fumarate) [Example 5, [1-(7,8-Dihydro-2,6,9-trioxa-3-aza-cyclopenta[a]naphthalen-8-ylmethyl)-piperidin-4-yl]-(4-fluoro-phenyl)-methanone], with 204 to 206 °C.
The same measure, in the same setting: then `Fc1ccc2[nH]cc(CC3CCN(CC4COc5ccc6nocc6c5O4)CC3)c2c1` (stereo not drawn) (as salt: oxalate) [Example 4, 8-[4-(5-Fluoro-1H-indol-3-ylmethyl)-piperidin-1-ylmethyl]-7,8-dihydro-2,6,9-trioxa-3-aza-cyclopenta[a]naphthalene], with 202 to 205 °C; and `c1ccc2c(CCCNCC3COc4ccc5nocc5c4O3)c[nH]c2c1` (stereo not drawn) (as salt: oxalate) [Example 6, 2,3-Dihydro-N-[3-(1H-indol-3-yl)propyl]-1,4-dioxino[2,3-e][2,1]benzisoxazole-2-methanamine], with 230 °C.
The same measure, in the same setting: then `C1=C(c2c[nH]c3ccccc23)CCN(CC2COc3ccc4nocc4c3O2)C1` (stereo not drawn) [Example 3, 8-[4-(1H-Indol-3-yl)-3,6-dihydro-2H-pyridin-1-ylmethyl]-7,8-dihydro-2,6,9-trioxa-3-aza-cyclopenta[a]naphthalene], with 110 °C.

The values are drawn from patent US6800642B2, “Antipsychotic aminomethyl derivatives of 7,8-dihydro-2,6,9-trioxa-3-aza-cyclopenta[a]naphthalene” (Wyeth, priority 2001, dated 2004).
